Assay results from US12194029B1, “Ethyl-1-(substitutedbenzoyl)-5-methylpyrrolo[1,2-a]quinoline-3-carboxylates as anticancer agents” (KING FAISAL UNIVERSITY, priority 2023, dated 2025).

Columns and labels:
[1] = system: human breast cancer cell line (MCF-7); experiment: MTT cell viability / in vitro cytotoxicity assay, MCF-7; assay type: cell-based; conditions: MCF7, MCF-7 cells, 48 h incubation, read-out: anticancer IC50 MCF-7
Procedure: (§1) The human breast cancer cell line (MCF-7), and adeno carcinomic human alveolar basal epithelial cell line (A-549), were used in the present study for the investigation of cell viability assay of the synthesized compounds.
(§2) The cells were seeded in a 96-well flat-bottom microplate and maintained at 37° C. in 95% humidity and 5% CO2 overnight. The microplates were then treated with different concentrations (5-100 μM) of the samples. The cells were incubated for another 48 h. The wells were washed twice with PBS and 20 μL of the MTT staining solution was added to each well and the plate was incubated at 37° C. After 4 h, 100 μL of DMSO was added to each well to dissolve the formazan crystals and absorbance was recorded with a 570 nm using a microplate reader.
(§3) In vitro cytotoxicity was performed by 3-(4,5-dimethylthiazol-2-yl)-2,5-di-phenyltetrazolium bromide (MTT) assay. Tested compounds were dissolved in DMSO by heating at 95° C. for 10 min, cooled at room temperature and final stock concentration of 1 mg/mL was prepared in DMEM (final DMSO concentration was <1%). The stock solutions were serially diluted to obtain the concentration range of 25 to 400 μM using DMEM, and cells were treated in triplicates. Untreated cells represented a control group and pac. treated as a positive control. After 48 h of incubation, the media was aspirated, 100 μL MTT (1 mg/mL) was added to each well and the plate was incubated at 37° C. for 4 h. After incubation, the media/MTT solution was aspirated and 100 μL DMSO was added to all the wells. Using a multi-mode microplate reader, a uniform shaking (for 5 min) was applied to dissolve Formazan crystals and the absorbance was recorded at 570 nm. Cell viability was calculated using the following equation: […]
(§4) The 50% […] inhibitory concentration (IC50) was determined using Prism software version 7. Using graph Pad Prism Version 5.1, IC50 values of the compounds were calculated.
(§5) Statistical analysis of the cytotoxicity data was performed on GraphPad Prism. All cytotoxicity experiments were conducted in triplicates. Results were analyzed as the standard error of the mean (SEM) and one-way analysis of variance (ANOVA) and the Dunnet multiple comparison test was used to evaluate the treated groups and the control. Further Bonferroni post-tests were performed for comparison of the complex with cis-platin. Differences were considered significant when p<0.05.

[2] = system: adeno carcinomic human alveolar basal epithelial cell line (A-549); experiment: MTT cell viability / in vitro cytotoxicity assay, A-549; assay type: cell-based; conditions: A549, A-549 cells, 48 h incubation, read-out: anticancer IC50 A-549
Procedure: as §1, §2, §3, §4, §5

| Compound | IC50 [1] [nM] | IC50 [2] [nM] |
| --- | --- | --- |
| COC(=O)c1c(C(=O)OC)c2cc(C)c3ccccc3n2c1C(=O)c1cc(C(F)(F)F)cc(C(F)(F)F)c1 [Compound 3a, Dimethyl-1-(3,5-bis(trifluoromethyl)benzoyl)-5-methylpyrrolo[1,2-a]quinoline-2,3-dicarboxylate] | 272 | 433 |
| CCOC(=O)c1cc(C(=O)c2cc(C(F)(F)F)cc(C(F)(F)F)c2)n2c1cc(C)c1ccccc12 [Compound 3b, Ethyl-1-(3,5-bis(trifluoromethyl)benzoyl)-5-methylpyrrolo[1,2-a]quinoline-3-carboxylate] | 27 | 99 |
| COC(=O)c1c(C(=O)OC)c2cc(C)c3ccccc3n2c1C(=O)c1ccccc1[N+](=O)[O-] [Compound 3c, Dimethyl-5-methyl-1-(2-nitrobenzoyl)pyrrolo[1,2-a]quinoline-2,3-dicarboxylate] | 15 | 316 |
| CCOC(=O)c1cc(C(=O)c2ccccc2[N+](=O)[O-])n2c1cc(C)c1ccccc12 [Compound 3d, Ethyl-5-methyl-1-(2-nitrobenzoyl)pyrrolo[1,2-a]quinoline-3-carboxylate] | 85 | 291 |
| COC(=O)c1c(C(=O)OC)c2cc(C)c3ccccc3n2c1C(=O)c1ccc(F)cc1 [Compound 3i, Dimethyl-1-(4-fluorobenzoyl)-5-methylpyrrolo[1,2-a]quinoline-2,3-dicarboxylate] | 209 | 183 |
